According to patent US11000033B2, “Ketone or oxime compound, and herbicide” (NISSAN CHEMICAL CORPORATION, priority 2014, dated 2021):

Tests used:
Format in all cases: in vivo
[1] = system: Echinochloa oryzacola Vasing.; assay: Test Example 2: herbicidal activity, application during weed generation in submerged conditions (symbol A); details: Table 23; application herbicide amount 320 g/ha; grade 0-5 by criteria of Test Example 1
In short: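 Compound was applied as a water-diluted emulsion into the standing water of flooded pots (4 cm) once co-sown weeds reached one to two leaves. Greenhouse temperature was 25° C. to 30° C., soil was alluvial, and each species was rated visually after 3 weeks.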

[2] = system: directly sowed rice plant; assay: Test Example 3: effect on crop by foliage application, Wagner pot (symbol b); details: application herbicide amount 320 g/ha
In short: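 Greenhouse culture at 25–30 °C of seeded rice, Cyperus difformis, Leptochloa chinensis and Echinochloa crus-galli var. crus-galli, in alluvial soil held under 0.1–0.5 cm of water in a Wagner pot.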

Digitaria ciliaris = assay: Test Example 4: herbicidal effect by soil treatment (symbol F); details: application herbicide amount 320 g/ha
In short: (§1)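 Seeds were sown in sterilized diluvial soil, covered with about 1.5 cm of soil, and the soil surface was sprayed with a water-diluted emulsion of the compound at a predetermined rate. Plants grew in a greenhouse at 25° C. to 30° C.; effects were scored visually 3 weeks after application.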

Alopecurus myosuroides [3] = assay: Test Example 4: herbicidal effect by soil treatment (symbol J); details: application herbicide amount 320 g/ha
In short: as §1

Lolium multiflorum Lam. [4] = assay: Test Example 4: herbicidal effect by soil treatment (symbol K); details: application herbicide amount 320 g/ha
In short: as §1

Stellaria media = assay: Test Example 4: herbicidal effect by soil treatment (symbol P); details: application herbicide amount 320 g/ha
In short: as §1

corn = assay: Test Example 4: effect on crop by soil treatment (symbol c); details: application herbicide amount 320 g/ha
In short: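 Steps: fill box with sterilized diluvial soil; sow seed spot-like; cover with ~1.5 cm soil; grow in greenhouse (25° C. to 30° C.).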

rice = assay: Test Example 4: effect on crop by soil treatment (symbol b); details: application herbicide amount 320 g/ha
In short: (§2)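 Seeds were sown in spots on sterilized diluvial soil in a plastic box and covered with about 1.5 cm of soil. Plants were then grown in a greenhouse at 25° C. to 30° C.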

wheat [5] = assay: Test Example 4: effect on crop by soil treatment (symbol e); details: application herbicide amount 320 g/ha
In short: as §2

beet = assay: Test Example 4: effect on crop by soil treatment (symbol f); details: application herbicide amount 320 g/ha
In short: as §2

rapeseed = assay: Test Example 4: effect on crop by soil treatment (symbol g); details: application herbicide amount 320 g/ha
In short: as §2

Alopecurus myosuroides [6] = assay: Test Example 5: herbicidal effect by foliage application, plastic box (symbol J); details: 320 g/ha, 3 weeks after application
In short: (§3)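 After sowing into sterilized diluvial soil and growing two weeks under glass at 25° C. to 30° C., seedlings receive a uniform foliar spray of diluted emulsion. Damage is judged visually three weeks on.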

Lolium multiflorum Lam. [7] = assay: Test Example 5: herbicidal effect by foliage application, plastic box (symbol K); details: 320 g/ha, 3 weeks after application
In short: as §3

rice plant = assay: Test Example 5: effect on crop by foliage application, plastic box (symbol b); details: 320 g/ha, 3 weeks after application
In short: (§4)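 Foliage-application test plants come from spot sowing in sterilized diluvial soil under a soil layer of about 1.5 cm, grown at 25° C. to 30° C. in a greenhouse.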

wheat [8] = assay: Test Example 5: effect on crop by foliage application, plastic box (symbol e); details: 320 g/ha, 3 weeks after application
In short: as §4

Compound	Herbicidal effect grade, A: Echinochloa oryzacola Vasing. [1]	effect on crop b (directly sowed rice plant), grade 0-5 [2]	Herbicidal effect grade, F: Digitaria ciliaris (Digitaria ciliaris)	Herbicidal effect grade, J: Alopecurus myosuroides (Alopecurus myosuroides [3])	Herbicidal effect grade, K: Lolium multiflorum Lam. (Lolium multiflorum Lam. [4])	Herbicidal effect grade, P: Stellaria media (Stellaria media)	Effect on crop grade, c: corn (corn)	J: Alopecurus myosuroides, herbicidal effect (criteria of Test Example 1) (Alopecurus myosuroides [6])	K: Lolium multiflorum Lam., herbicidal effect (criteria of Test Example 1) (Lolium multiflorum Lam. [7])	b: directly sowed rice plant, effect on crop (criteria of Test Example 1) (rice plant)	e: wheat, effect on crop (criteria of Test Example 1) (wheat [8])	F: Digitaria ciliaris, herbicidal effect grade (Digitaria ciliaris)	J: Alopecurus myosuroides, herbicidal effect grade (Alopecurus myosuroides [3])	K: Lolium multiflorum Lam., herbicidal effect grade (Lolium multiflorum Lam. [4])	P: Stellaria media, herbicidal effect grade (Stellaria media)	c: corn, effect on crop grade (corn)	b: directly sowed rice plant, effect on crop grade (rice)	e: wheat, effect on crop grade (wheat [5])	f: beet, effect on crop grade (beet)	g: rapeseed, effect on crop grade (rapeseed)	also measured
CON=C(C)CC1CC(O)=C(c2c(C)cc(-c3ccccc3)cc2OC)C1=O (stereo not drawn) [6-099]	5 (Herbicidal ratio of 90% or more (almost completely withered))	5 (Herbicidal ratio of 90% or more (almost completely withered))	5 (Herbicidal ratio of 90% or more (almost completely withered))	5 (Herbicidal ratio of 90% or more (almost completely withered))	5 (Herbicidal ratio of 90% or more (almost completely withered))	4 (Herbicidal ratio of 70% or higher and lower than 90%)	5 (Herbicidal ratio of 90% or more (almost completely withered))	5 (Herbicidal ratio of 90% or more (almost completely withered))	5 (Herbicidal ratio of 90% or more (almost completely withered))	5 (Herbicidal ratio of 90% or more (almost completely withered))	5 (Herbicidal ratio of 90% or more (almost completely withered))										Effect on crop grade, b: directly sowed rice plant (rice): 5 (Herbicidal ratio of 90% or more (almost completely withered)); Effect on crop grade, e: wheat (wheat [5]): 5 (Herbicidal ratio of 90% or more (almost completely withered)); Effect on crop grade, f: beet (beet): 2 (Herbicidal ratio of 20% or higher and lower than 40%); Effect on crop grade, g: rapeseed (rapeseed): 5 (Herbicidal ratio of 90% or more (almost completely withered))
CON=C(C)CC1CC(OC(=O)COc2ccccc2)=C(c2c(C)cc(-c3ccc(Cl)cc3)cc2C)C1=O (mixture of isomers) [6-061]	5 (Herbicidal ratio of 90% or more (almost completely withered))	5 (Herbicidal ratio of 90% or more (almost completely withered))						5 (Herbicidal ratio of 90% or more (almost completely withered))	5 (Herbicidal ratio of 90% or more (almost completely withered))	5 (Herbicidal ratio of 90% or more (almost completely withered))	5 (Herbicidal ratio of 90% or more (almost completely withered))	5 (Herbicidal ratio of 90% or more (almost completely withered))	5 (Herbicidal ratio of 90% or more (almost completely withered))	5 (Herbicidal ratio of 90% or more (almost completely withered))	3 (Herbicidal ratio of 40% or higher and lower than 70%)	0 (Herbicidal ratio of 5% or lower (almost no effect))	5 (Herbicidal ratio of 90% or more (almost completely withered))	2 (Herbicidal ratio of 20% or higher and lower than 40%)	0 (Herbicidal ratio of 5% or lower (almost no effect))	3 (Herbicidal ratio of 40% or higher and lower than 70%)	
CON=C(C)CC1CC(O)=C(c2c(C)cc(Oc3ccccc3)cc2C)C1=O (stereo not drawn) [6-052]	3 (Herbicidal ratio of 40% or higher and lower than 70%)	5 (Herbicidal ratio of 90% or more (almost completely withered))										4 (Herbicidal ratio of 70% or higher and lower than 90%)	0 (Herbicidal ratio of 5% or lower (almost no effect))	0 (Herbicidal ratio of 5% or lower (almost no effect))	2 (Herbicidal ratio of 20% or higher and lower than 40%)	0 (Herbicidal ratio of 5% or lower (almost no effect))	1 (Herbicidal ratio of 5% or higher and lower than 20%)	0 (Herbicidal ratio of 5% or lower (almost no effect))	0 (Herbicidal ratio of 5% or lower (almost no effect))	3 (Herbicidal ratio of 40% or higher and lower than 70%)	J: Alopecurus myosuroides, herbicidal effect grade (Alopecurus myosuroides [6]): 4 (Herbicidal ratio of 70% or higher and lower than 90%); K: Lolium multiflorum Lam., herbicidal effect grade (Lolium multiflorum Lam. [7]): 5 (Herbicidal ratio of 90% or more (almost completely withered)); b: directly sowed rice plant, effect on crop grade (rice plant): 5 (Herbicidal ratio of 90% or more (almost completely withered)); e: wheat, effect on crop grade (wheat [8]): 0 (Herbicidal ratio of 5% or lower (almost no effect))
CON=C(C)CC1CC(OCOC(=O)c2ccccc2)=C(c2c(C)cc(-c3ccc(Cl)cc3)cc2C)C1=O (stereo not drawn) [6-083]	5 (Herbicidal ratio of 90% or more (almost completely withered))	5 (Herbicidal ratio of 90% or more (almost completely withered))						5 (Herbicidal ratio of 90% or more (almost completely withered))	4 (Herbicidal ratio of 70% or higher and lower than 90%)	5 (Herbicidal ratio of 90% or more (almost completely withered))	4 (Herbicidal ratio of 70% or higher and lower than 90%)	5 (Herbicidal ratio of 90% or more (almost completely withered))	5 (Herbicidal ratio of 90% or more (almost completely withered))	1 (Herbicidal ratio of 5% or higher and lower than 20%)	0 (Herbicidal ratio of 5% or lower (almost no effect))	0 (Herbicidal ratio of 5% or lower (almost no effect))	0 (Herbicidal ratio of 5% or lower (almost no effect))	0 (Herbicidal ratio of 5% or lower (almost no effect))	0 (Herbicidal ratio of 5% or lower (almost no effect))	0 (Herbicidal ratio of 5% or lower (almost no effect))	
CON=C(C)CC1CC(OC(=O)COc2ccccc2)=C(c2c(C)cc(-c3ccc(Cl)cc3Cl)cc2C)C1=O (stereo not drawn) [6-092]	1 (Herbicidal ratio of 5% or higher and lower than 20%)	5 (Herbicidal ratio of 90% or more (almost completely withered))	5 (Herbicidal ratio of 90% or more (almost completely withered))	3 (Herbicidal ratio of 40% or higher and lower than 70%)	5 (Herbicidal ratio of 90% or more (almost completely withered))	0 (Herbicidal ratio of 5% or lower (almost no effect))	0 (Herbicidal ratio of 5% or lower (almost no effect))	5 (Herbicidal ratio of 90% or more (almost completely withered))	5 (Herbicidal ratio of 90% or more (almost completely withered))	4 (Herbicidal ratio of 70% or higher and lower than 90%)	0 (Herbicidal ratio of 5% or lower (almost no effect))										Effect on crop grade, b: directly sowed rice plant (rice): 4 (Herbicidal ratio of 70% or higher and lower than 90%); Effect on crop grade, e: wheat (wheat [5]): 0 (Herbicidal ratio of 5% or lower (almost no effect)); Effect on crop grade, f: beet (beet): 0 (Herbicidal ratio of 5% or lower (almost no effect)); Effect on crop grade, g: rapeseed (rapeseed): 0 (Herbicidal ratio of 5% or lower (almost no effect))
